Measurements reported in US10294202B2, “Pyrrolidinones as herbicides” (FMC Corporation, priority 2013, dated 2019).

How the values were obtained:
[1] = tested on: corn; experiment: Test A pre-/postemergence herbicide test; format: in vivo, Zea mays; conditions: Postemergence
Method in brief: (§1)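 Directed soil spray to seeded pots (preemergence) or spray onto one- to two-leaf seedlings 2–10 cm tall (postemergence); loam/sand substrate throughout. Evaluated visually after about 10 days against untreated plants, 0 = no effect, 100 = complete control.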

[2] = tested on: rice; experiment: Test B flooded paddy test; format: in vivo, Oryza sativa; conditions: 500 g ai/ha, Flood; scale of 0 to 100 where 0 is no effect and 100 is complete control
Method in brief: (§2)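 Scoring: visual, compared with untreated controls, 0 = no effect through 100 = complete control, taken 13 to 15 days after treatment in the greenhouse. Compounds had been added to paddy water over soil flooded 3 cm deep at the plants' 2-leaf stage.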

[3] = tested on: kochia; experiment: Test A pre-/postemergence herbicide test; format: in vivo, Kochia scoparia
Method in brief: as §1

[4] = tested on: pigweed; experiment: Test A pre-/postemergence herbicide test; format: in vivo, Amaranthus retroflexus
Method in brief: as §1

[5] = tested on: giant foxtail; experiment: Test A pre-/postemergence herbicide test; format: in vivo, Setaria faberii
Method in brief: as §1

[6] = tested on: ducksalad; experiment: Test B flooded paddy test; format: in vivo, Heteranthera limosa; conditions: 500 g ai/ha, Flood; scale of 0 to 100 where 0 is no effect and 100 is complete control
Method in brief: as §2

[7] = tested on: barnyardgrass; experiment: Test B flooded paddy test; format: in vivo, Echinochloa crus-galli; conditions: 500 g ai/ha, Flood; scale of 0 to 100 where 0 is no effect and 100 is complete control
Method in brief: as §2

[8] = tested on: barnyardgrass; experiment: Test A pre-/postemergence herbicide test; format: in vivo, Echinochloa crus-galli
Method in brief: as §1

[9] = tested on: wheat; experiment: Test A pre-/postemergence herbicide test; format: in vivo, Triticum aestivum; conditions: Postemergence
Method in brief: as §1

[10] = tested on: blackgrass; experiment: Test A postemergence herbicide test; format: in vivo, Alopecurus myosuroides
Method in brief: (§3)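 Blackgrass and galium grown in pots of loam soil–sand blend, treated postemergence at 2–10 cm height, one- to two-leaf stage. Plants kept in greenhouse ~10 days, then visually rated for injury against untreated controls on a 0–100 scale (0 no effect, 100 complete control).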

[11] = tested on: ragweed; experiment: Test A pre-/postemergence herbicide test; format: in vivo, Ambrosia elatior
Method in brief: as §1

[12] = tested on: sedge, umbrella; experiment: Test B flooded paddy test; format: in vivo, Cyperus difformis; conditions: 500 g ai/ha, Flood; scale of 0 to 100 where 0 is no effect and 100 is complete control
Method in brief: as §2

[13] = tested on: ryegrass, Italian; experiment: Test A pre-/postemergence herbicide test; format: in vivo, Lolium multiflorum
Method in brief: as §1

[14] = tested on: galium; experiment: Test A postemergence herbicide test; format: in vivo, Galium aparine
Method in brief: as §3

[15] = 125 g ai/ha, visual rating on 0 to 100 scale (0 no effect, 100 complete control), approx. 10 days
[16] = 500 g ai/ha, 0 to 100 scale (0 no effect, 100 complete control)
[17] = Postemergence, 125 g ai/ha, visual rating on 0 to 100 scale (0 no effect, 100 complete control), approx. 10 days
[18] = Postemergence, 500 g ai/ha, 0 to 100 scale (0 no effect, 100 complete control)
[19] = Preemergence, 125 g ai/ha, 0 to 100 scale where 0 is no effect and 100 is complete control
[20] = Preemergence, 500 g ai/ha, visual rating on 0 to 100 scale (0 no effect, 100 complete control)

Row | Structure (SMILES) | Plant response rating, Corn [1, 15] | Plant response rating, Corn [1, 16] | Plant response rating, Rice [2] | Plant response rating, Kochia [3, 17] | Plant response rating, Kochia [3, 18] | Plant response rating, Kochia [3, 19] | Kochia plant response rating [3, 20] | Plant response rating, Pigweed [4, 17] | Plant response rating, Pigweed [4, 18] | Plant response rating, Pigweed [4, 19] | Pigweed plant response rating [4, 20] | Plant response rating, Foxtail, Giant [5, 17] | Plant response rating, Foxtail, Giant [5, 18] | Plant response rating, Foxtail, Giant [5, 19] | Foxtail, Giant plant response rating [5, 20] | Plant response rating, Ducksalad [6] | Plant response rating, Barnyardgrass [7] | Plant response rating, Barnyardgrass [8, 17] | Plant response rating, Barnyardgrass [8, 18] | Plant response rating, Barnyardgrass [8, 19] | further results
1 | O=C1NCC(c2ccc(SC(F)(F)F)cc2)C1C(=O)Nc1ccccc1F (stereo not drawn) [Compound 321] | 0 | 0 | 15 | 0 | 0 | 0 | 0 | 0 | 0 | 0 | 0 | 0 | 50 | 0 | 50 | 40 | 20 | 0 | 50 | 0 | Barnyardgrass plant response rating [8, 20]: 30; Plant response rating, Wheat [9, 15]: 0; Plant response rating, Wheat [9, 16]: 0; Plant response rating, Blackgrass [10, 15]: 0; Plant response rating, Blackgrass [10, 16]: 0; Plant response rating, Ragweed [11, 17]: 0; Plant response rating, Ragweed [11, 18]: 0; Plant response rating, Ragweed [11, 19]: 0; Ragweed plant response rating [11, 20]: 0; Plant response rating, Sedge, Umbrella [12]: 0; Plant response rating, Ryegrass, Italian [13, 17]: 0; Plant response rating, Ryegrass, Italian [13, 18]: 0; Plant response rating, Ryegrass, Italian [13, 19]: 0; Ryegrass, Italian plant response rating [13, 20]: 0; Plant response rating, Galium [14, 15]: 0; Plant response rating, Galium [14, 16]: 0
2 | O=C1NCC(c2ccc(SC(F)(F)F)cc2)C1C(=O)Nc1ccc(F)c(F)c1F (stereo not drawn) [Compound 322] | 0 | 20 | 0 | 0 | 0 | 0 | 0 | 0 | 0 | 0 | 0 | 0 | 60 | 0 | 70 | 100 | 0 | 0 | 60 | 0 | Barnyardgrass plant response rating [8, 20]: 40; Plant response rating, Wheat [9, 15]: 0; Plant response rating, Wheat [9, 16]: 0; Plant response rating, Blackgrass [10, 15]: 0; Plant response rating, Blackgrass [10, 16]: 0; Plant response rating, Ragweed [11, 17]: 0; Plant response rating, Ragweed [11, 18]: 0; Plant response rating, Ragweed [11, 19]: 0; Ragweed plant response rating [11, 20]: 0; Plant response rating, Sedge, Umbrella [12]: 0; Plant response rating, Ryegrass, Italian [13, 17]: 0; Plant response rating, Ryegrass, Italian [13, 18]: 0; Plant response rating, Ryegrass, Italian [13, 19]: 0; Ryegrass, Italian plant response rating [13, 20]: 0; Plant response rating, Galium [14, 15]: 0; Plant response rating, Galium [14, 16]: 0
3 | O=C1NCC(c2cccc(-n3ccc(C(F)(F)F)n3)c2)C1C(=O)Nc1cccc(F)c1F (stereo not drawn) [Compound 326] | 0 | 0 | 0 | 0 | 30 | 40 | 50 | 0 | 0 | 0 | 0 | 20 | 50 | 50 | 60 | 0 | 0 | 0 | 20 | 0 | Barnyardgrass plant response rating [8, 20]: 30; Plant response rating, Wheat [9, 15]: 0; Plant response rating, Wheat [9, 16]: 0; Plant response rating, Blackgrass [10, 15]: 0; Plant response rating, Blackgrass [10, 16]: 0; Plant response rating, Ragweed [11, 17]: 0; Plant response rating, Ragweed [11, 18]: 0; Plant response rating, Ragweed [11, 19]: 0; Ragweed plant response rating [11, 20]: 0; Plant response rating, Sedge, Umbrella [12]: 0; Plant response rating, Ryegrass, Italian [13, 17]: 0; Plant response rating, Ryegrass, Italian [13, 18]: 0; Plant response rating, Ryegrass, Italian [13, 19]: 0; Ryegrass, Italian plant response rating [13, 20]: 40; Plant response rating, Galium [14, 15]: 0; Plant response rating, Galium [14, 16]: 0
4 | O=C1NCC(c2cccc(I)c2)C1C(=O)Nc1cccc(F)c1F (stereo not drawn) [Compound 327] | 0 | 30 | 0 | 30 | 40 | 30 | 70 | 0 | 20 | 0 | 20 | 40 | 80 | 80 | 90 | 60 | 0 | 40 | 80 | 70 | Barnyardgrass plant response rating [8, 20]: 80; Plant response rating, Wheat [9, 15]: 0; Plant response rating, Wheat [9, 16]: 20; Plant response rating, Blackgrass [10, 15]: 30; Plant response rating, Blackgrass [10, 16]: 40; Plant response rating, Ragweed [11, 17]: 0; Plant response rating, Ragweed [11, 18]: 20; Plant response rating, Ragweed [11, 19]: 20; Ragweed plant response rating [11, 20]: 30; Plant response rating, Sedge, Umbrella [12]: 0; Plant response rating, Ryegrass, Italian [13, 17]: 20; Plant response rating, Ryegrass, Italian [13, 18]: 20; Plant response rating, Ryegrass, Italian [13, 19]: 40; Ryegrass, Italian plant response rating [13, 20]: 40; Plant response rating, Galium [14, 15]: 40; Plant response rating, Galium [14, 16]: 60
5 | O=C1NCC(c2cccc(Oc3ccccc3)c2)C1C(=O)Nc1ccc(F)cc1F (stereo not drawn) [Compound 331] | 0 | 0 | 0 | 0 | 20 | 0 | 0 | 0 | 0 | 0 | 20 | 20 | 80 | 50 | 90 | 65 | 40 | 20 | 70 | 20 | Barnyardgrass plant response rating [8, 20]: 80; Plant response rating, Wheat [9, 15]: 0; Plant response rating, Wheat [9, 16]: 0; Plant response rating, Blackgrass [10, 15]: 0; Plant response rating, Blackgrass [10, 16]: 30; Plant response rating, Ragweed [11, 17]: 0; Plant response rating, Ragweed [11, 18]: 0; Plant response rating, Ragweed [11, 19]: 0; Ragweed plant response rating [11, 20]: 20; Plant response rating, Sedge, Umbrella [12]: 0; Plant response rating, Ryegrass, Italian [13, 17]: 0; Plant response rating, Ryegrass, Italian [13, 18]: 0; Plant response rating, Ryegrass, Italian [13, 19]: 0; Ryegrass, Italian plant response rating [13, 20]: 20; Plant response rating, Galium [14, 15]: 0; Plant response rating, Galium [14, 16]: 30
